Consider 4 molecules from ChEMBL document CHEMBL1147114, “Fluoroquinolone resistance in Haemophilus influenzae is associated with hypermutability” (2007).

Holding throughout (format): functional
The subject of experiment [1] is Haemophilus influenzae. Nature of the experiment: Antimicrobial susceptibility against Haemophilus influenzae C1 isolate with GyrA Asp88Asn, AcrR Leu31His and Arg34Glu mutation.
The test system of experiment [2] is Haemophilus influenzae. Nature of the experiment: Antimicrobial susceptibility against Haemophilus influenzae D3 isolate with GyrA Ser84Tyr, ParC Glu88Lys and AcrR Leu31His, Ile121Val and Gln134Lys mutation.
In experiment [3] the test system is Haemophilus influenzae. The experiment in a line: Antimicrobial susceptibility against Haemophilus influenzae A1 isolate with GyrA Glu83Cys, ParC Ser84Arg and AcrR 97stop codon mutation.
For experiment [4], the system named is Haemophilus influenzae. Nature of the experiment: Antimicrobial susceptibility against Haemophilus influenzae D1 isolate with GyrA Ser84Tyr, ParC Glu88Lys and AcrR Leu31His, Ile121Val and Gln134Lys mutation.
For experiment [5], the system named is Haemophilus influenzae. The experiment in a line: Antimicrobial susceptibility against Haemophilus influenzae C isolate with AcrR Leu31His and Arg34Glu mutation.
The test system of experiment [6] is Haemophilus influenzae. Nature of the experiment: Antimicrobial susceptibility against Haemophilus influenzae D isolate with AcrR Leu31His, Ile121Val and Gln134Lys mutation.
Experiment [7] has as its system Haemophilus influenzae. Nature of the experiment: Antimicrobial susceptibility against Haemophilus influenzae D2 isolate with GyrA Ser84Tyr, ParC Glu88Lys and AcrR Leu31His, Ile121Val and Gln134Lys mutation.
Experiment [8] has as its system Haemophilus influenzae. Nature of the experiment: Antimicrobial susceptibility against Haemophilus influenzae A2 with GyrA Glu83Cys, ParC Ser84Arg and AcrR 97stop codon mutation.
The test system of experiment [9] is Haemophilus influenzae. Nature of the experiment: Antimicrobial susceptibility against Haemophilus influenzae C2 isolate with GyrA Asp88Asn, AcrR Leu31His and Arg34Glu mutation.
The test system of experiment [10] is Haemophilus influenzae. Nature of the experiment: Antimicrobial susceptibility against Haemophilus influenzae B1 isolate with GyrA Asp88Tyr and AcrR Leu31His mutation.
Experiment [11] has as its system Haemophilus influenzae. The experiment in a line: Antimicrobial susceptibility against Haemophilus influenzae A3 isolate with GyrA Glu83Cys, ParC Ser84Arg and AcrR 97stop codon mutation.
The test system of experiment [12] is Haemophilus influenzae. The experiment in a line: Antimicrobial susceptibility against Haemophilus influenzae A4 isolate with GyrA Glu83Cys, ParC Ser84Arg and AcrR 97stop codon mutation.
Experiment [13] concerns Haemophilus influenzae. The experiment in a line: Antimicrobial susceptibility against Haemophilus influenzae A isolate with GyrA Glu83Cys and AcrR 97stop codon mutation.
For experiment [14], the system named is Haemophilus influenzae. Nature of the experiment: Antimicrobial susceptibility against Haemophilus influenzae B2 isolate with GyrA Asp88Tyr and AcrR Leu31His mutation.
The subject of experiment [15] is Haemophilus influenzae. The experiment in a line: Antimicrobial susceptibility against Haemophilus influenzae D4 isolate with GyrA Ser84Tyr, ParC Glu88Lys and AcrR Leu31His, Ile121Val and Gln134Lys mutation.
For experiment [16], the system named is Haemophilus influenzae. Nature of the experiment: Antimicrobial susceptibility against Haemophilus influenzae C3 isolate with GyrA Asp88Asn, ParC Ser84Ile, AcrR Leu31His and Arg34Glu mutation.
Experiment [17] deals with Haemophilus influenzae. Nature of the experiment: Antimicrobial susceptibility against Haemophilus influenzae B isolate with AcrR Leu31His mutation.

≈ marks a conversion by molar mass, not a printed value.

Turning to `COc1c(N2C[C@@H]3CCCN[C@@H]3C2)c(F)cc2c(=O)c(C(=O)O)cn(C3CC3)c12` [MOXIFLOXACIN], the MIC in the experiment with Haemophilus influenzae [1] is 0.12 µg/mL (≈ 0.299 µM); in the experiment with Haemophilus influenzae [2] it was 2 µg/mL (≈ 4.98 µM); against Haemophilus influenzae [3] it was 0.5 µg/mL (≈ 1.25 µM); with Haemophilus influenzae [4], 0.5 µg/mL (≈ 1.25 µM); against Haemophilus influenzae [5], 0.03 µg/mL (≈ 0.0747 µM); against Haemophilus influenzae [6], 0.03 µg/mL (≈ 0.0747 µM). Further, the MIC was found to be 2 µg/mL (≈ 4.98 µM) against Haemophilus influenzae [7]; 0.5 µg/mL (≈ 1.25 µM) with Haemophilus influenzae [8]; 4 µg/mL (≈ 9.96 µM) against Haemophilus influenzae [9]; 0.25 µg/mL (≈ 0.623 µM) in the experiment on Haemophilus influenzae [10]; 0.5 µg/mL (≈ 1.25 µM) in the experiment with Haemophilus influenzae [11]; 2 µg/mL (≈ 4.98 µM) in the experiment with Haemophilus influenzae [12]. Also, the MIC was found to be 0.03 µg/mL (≈ 0.0747 µM) with Haemophilus influenzae [13]; 0.25 µg/mL (≈ 0.623 µM) against Haemophilus influenzae [14]; 2 µg/mL (≈ 4.98 µM) against Haemophilus influenzae [15]; 4 µg/mL (≈ 9.96 µM) against Haemophilus influenzae [16]; 0.06 µg/mL (≈ 0.149 µM) against Haemophilus influenzae [17].

Turning to `O=C(O)c1cn(C2CC2)c2cc(N3CCNCC3)c(F)cc2c1=O` [CIPROFLOXACIN], the MIC against Haemophilus influenzae [1] was found to be 0.12 µg/mL (≈ 0.362 µM); with Haemophilus influenzae [2] it was 8 µg/mL (≈ 24.1 µM); against Haemophilus influenzae [3], 0.25 µg/mL (≈ 0.754 µM); against Haemophilus influenzae [4], 1 µg/mL (≈ 3.02 µM); with Haemophilus influenzae [5], 0.01 µg/mL (≈ 0.0302 µM); against Haemophilus influenzae [6], 0.01 µg/mL (≈ 0.0302 µM). Besides, the MIC worked out at 4 µg/mL (≈ 12.1 µM) in the experiment on Haemophilus influenzae [7]; 0.25 µg/mL (≈ 0.754 µM) with Haemophilus influenzae [8]; 2 µg/mL (≈ 6.04 µM) with Haemophilus influenzae [9]; 0.12 µg/mL (≈ 0.362 µM) against Haemophilus influenzae [10]; 2 µg/mL (≈ 6.04 µM) against Haemophilus influenzae [11]; 4 µg/mL (≈ 12.1 µM) in the experiment with Haemophilus influenzae [12]. Besides, the MIC in the experiment on Haemophilus influenzae [13] was 0.01 µg/mL (≈ 0.0302 µM); against Haemophilus influenzae [14] it was 0.25 µg/mL (≈ 0.754 µM); against Haemophilus influenzae [15] it was 16 µg/mL (≈ 48.3 µM); with Haemophilus influenzae [16], 8 µg/mL (≈ 24.1 µM); against Haemophilus influenzae [17], 0.03 µg/mL (≈ 0.0905 µM).

For `CCn1cc(C(=O)O)c(=O)c2ccc(C)nc21` [NALIDIXIC ACID], the MIC in the experiment with Haemophilus influenzae [1] worked out at 16 µg/mL (≈ 68.9 µM); in the experiment with Haemophilus influenzae [2] it was 128 µg/mL (≈ 551 µM); against Haemophilus influenzae [3], 1 µg/mL (≈ 4.31 µM); against Haemophilus influenzae [4], 64 µg/mL (≈ 276 µM); against Haemophilus influenzae [5] it was 0.5 µg/mL (≈ 2.15 µM); with Haemophilus influenzae [6], 0.5 µg/mL (≈ 2.15 µM). For the same molecule, the MIC in the experiment on Haemophilus influenzae [7] amounted to 64 µg/mL (≈ 276 µM); against Haemophilus influenzae [8] it was 64 µg/mL (≈ 276 µM); in the experiment with Haemophilus influenzae [9], 128 µg/mL (≈ 551 µM); against Haemophilus influenzae [10], 32 µg/mL (≈ 138 µM); in the experiment with Haemophilus influenzae [11], 64 µg/mL (≈ 276 µM); in the experiment with Haemophilus influenzae [12], 128 µg/mL (≈ 551 µM). Besides, the MIC with Haemophilus influenzae [13] amounted to 0.5 µg/mL (≈ 2.15 µM); with Haemophilus influenzae [14], 64 µg/mL (≈ 276 µM); in the experiment on Haemophilus influenzae [15] it was 128 µg/mL (≈ 551 µM); with Haemophilus influenzae [16], 128 µg/mL (≈ 551 µM); with Haemophilus influenzae [17], 0.5 µg/mL (≈ 2.15 µM).

Turning to `C[C@H]1COc2c(N3CCN(C)CC3)c(F)cc3c(=O)c(C(=O)O)cn1c23.C[C@H]1COc2c(N3CCN(C)CC3)c(F)cc3c(=O)c(C(=O)O)cn1c23.O` [LEVOFLOXACIN], the MIC in the experiment on Haemophilus influenzae [1] was 0.12 µg/mL; in the experiment on Haemophilus influenzae [2] it was 4 µg/mL; in the experiment on Haemophilus influenzae [3], 0.25 µg/mL; with Haemophilus influenzae [4] it was 0.5 µg/mL; against Haemophilus influenzae [5] it was 0.03 µg/mL; in the experiment with Haemophilus influenzae [6], 0.03 µg/mL. Moreover, the MIC worked out at 2 µg/mL against Haemophilus influenzae [7]; 0.5 µg/mL against Haemophilus influenzae [8]; 2 µg/mL against Haemophilus influenzae [9]; 0.25 µg/mL in the experiment with Haemophilus influenzae [10]; 0.5 µg/mL in the experiment with Haemophilus influenzae [11]; 4 µg/mL in the experiment on Haemophilus influenzae [12]. In addition, the MIC in the experiment on Haemophilus influenzae [13] was found to be 0.03 µg/mL; against Haemophilus influenzae [14], 0.25 µg/mL; against Haemophilus influenzae [15], 4 µg/mL; against Haemophilus influenzae [16], 8 µg/mL; in the experiment with Haemophilus influenzae [17], 0.03 µg/mL.
